Measurements reported in article PMC8158844 (ACS Omega, 2021).
“And” between values parts separate entries of the source, which are not always exact repeats. Identical values can stand only once. Marks after values point to notes of the source that are not given here.

Assays:
[1] = Metabolic stability in porcine blood plasma; assay type: in vitro ADME; settings: for stability porcine blood plasma (percent of parent remaining): Table 3, 30 min, 37 °C, n = 3 unless otherwise stated
[2] = biological target: T1, porcine albumin (Sus scrofa, UniProt P08835); test: Stability in porcine albumin solution; assay type: in vitro ADME; settings: porcine albumin 17.5 mg/mL in PBS; 30 min, 37 °C
T1 sequence (P08835 25-607): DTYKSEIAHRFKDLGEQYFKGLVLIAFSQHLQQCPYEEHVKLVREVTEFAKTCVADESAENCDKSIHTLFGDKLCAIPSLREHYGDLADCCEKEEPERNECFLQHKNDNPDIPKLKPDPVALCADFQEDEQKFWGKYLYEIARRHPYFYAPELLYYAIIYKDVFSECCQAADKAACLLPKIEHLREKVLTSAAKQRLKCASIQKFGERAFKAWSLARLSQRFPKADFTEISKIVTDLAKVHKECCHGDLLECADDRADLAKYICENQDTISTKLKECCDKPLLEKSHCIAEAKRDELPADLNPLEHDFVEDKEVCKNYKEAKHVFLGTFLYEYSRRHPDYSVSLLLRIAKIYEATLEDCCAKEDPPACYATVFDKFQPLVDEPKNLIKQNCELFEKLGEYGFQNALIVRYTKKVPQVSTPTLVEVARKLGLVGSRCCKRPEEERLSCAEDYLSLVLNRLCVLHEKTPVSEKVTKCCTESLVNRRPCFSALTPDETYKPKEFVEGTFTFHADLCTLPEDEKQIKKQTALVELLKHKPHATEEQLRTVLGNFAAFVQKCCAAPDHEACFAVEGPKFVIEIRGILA

[3] = Metabolic stability in rat liver S9 fraction; assay type: in vitro ADME; settings: 30 min incubation in the presence of NADPH
[4] = biological target: T2, FAAH (Rattus norvegicus, UniProt P97612); test: Inhibition of fatty acid amide hydrolase; assay type: biochemical
T2 sequence (P97612 1-579): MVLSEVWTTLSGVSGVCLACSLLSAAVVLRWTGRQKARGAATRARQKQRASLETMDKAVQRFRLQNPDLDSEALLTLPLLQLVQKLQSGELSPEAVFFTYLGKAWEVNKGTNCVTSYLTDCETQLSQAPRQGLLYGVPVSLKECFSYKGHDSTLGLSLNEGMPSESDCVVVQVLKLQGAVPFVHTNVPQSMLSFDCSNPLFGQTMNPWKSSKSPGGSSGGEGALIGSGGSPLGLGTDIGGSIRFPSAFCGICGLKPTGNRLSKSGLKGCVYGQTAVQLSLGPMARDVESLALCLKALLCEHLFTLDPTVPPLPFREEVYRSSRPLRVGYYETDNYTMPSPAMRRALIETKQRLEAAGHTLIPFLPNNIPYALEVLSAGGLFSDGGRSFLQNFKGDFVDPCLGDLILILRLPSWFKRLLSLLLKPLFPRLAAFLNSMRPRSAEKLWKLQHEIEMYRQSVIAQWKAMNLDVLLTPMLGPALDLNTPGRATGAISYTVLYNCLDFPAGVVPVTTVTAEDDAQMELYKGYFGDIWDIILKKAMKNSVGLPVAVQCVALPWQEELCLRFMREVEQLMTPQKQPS

[5] = Chemical stability in aqueous solution; assay type: physicochemical; settings: PBS buffer pH 7.4 with 0.2% Triton X-100; 60 min, 37 °C
[6] = Metabolic stability in porcine liver S9 fraction; assay type: in vitro ADME; settings: 30 min; for stability in the absence of BNNP (percent of parent remaining) / stability in the presence of BNNP (percent of parent remaining): porcine liver homogenate; for stability in the presence of BNNP (percent of parent remaining): carboxylesterase 1 inhibitor BNPP 1 mM; for stability porcine liver S9 fractions (percent of parent remaining): 37 °C, no NADPH added
[7] = biological target: T3, human recombinant MAGL (Homo sapiens, UniProt Q99685); test: Inhibition of monoacylglycerol lipase; assay type: biochemical
T3 sequence (Q99685 1-303): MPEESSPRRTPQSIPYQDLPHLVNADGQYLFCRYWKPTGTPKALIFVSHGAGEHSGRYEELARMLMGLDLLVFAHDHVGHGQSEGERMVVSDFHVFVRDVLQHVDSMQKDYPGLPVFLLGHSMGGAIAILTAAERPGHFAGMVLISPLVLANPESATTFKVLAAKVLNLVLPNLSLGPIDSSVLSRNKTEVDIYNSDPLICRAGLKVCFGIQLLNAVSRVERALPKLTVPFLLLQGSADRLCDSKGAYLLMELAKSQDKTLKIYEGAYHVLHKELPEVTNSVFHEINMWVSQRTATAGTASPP

[8] = biological target: T1, porcine albumin; test: Reaction with porcine albumin investigated by MS; settings: 60 min, 37 °C; molar ratio compound/albumin 4:1
[9] = biological target: BuChE (Equus caballus, UniProt P81908); test: Inhibition of butyrylcholinesterase; assay type: biochemical, horse; settings: read-out: BuChE inhibition at 10 μM
Sequence of BuChE (P81908 whole entry): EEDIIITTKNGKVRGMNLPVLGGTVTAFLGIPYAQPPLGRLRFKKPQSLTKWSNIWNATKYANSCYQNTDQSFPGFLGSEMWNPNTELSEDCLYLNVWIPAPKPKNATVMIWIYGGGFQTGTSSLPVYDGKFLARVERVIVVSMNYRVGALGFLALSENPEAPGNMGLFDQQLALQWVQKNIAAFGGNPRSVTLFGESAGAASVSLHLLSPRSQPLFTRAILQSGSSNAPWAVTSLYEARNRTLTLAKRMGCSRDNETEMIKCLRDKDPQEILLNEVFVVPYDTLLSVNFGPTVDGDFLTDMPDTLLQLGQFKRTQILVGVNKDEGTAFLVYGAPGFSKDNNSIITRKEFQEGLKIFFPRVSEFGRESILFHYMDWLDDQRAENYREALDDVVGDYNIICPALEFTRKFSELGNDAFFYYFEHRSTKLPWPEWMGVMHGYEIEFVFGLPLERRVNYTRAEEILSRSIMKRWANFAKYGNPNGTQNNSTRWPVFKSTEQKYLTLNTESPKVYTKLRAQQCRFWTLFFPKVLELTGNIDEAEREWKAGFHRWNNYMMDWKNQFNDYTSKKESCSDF

Compound	metabolic stability porcine plasma (percent of parent remaining) ([1]; Table 1, 30 min incubation, n = 3) [%]	stability porcine albumin solution (percent of parent remaining) [2]	metabolic stability rat liver S9 fraction (percent of parent remaining) [3] [%]	IC50 [4] [nM]	stability in PBS buffer (percent of parent remaining) [5] [%]	stability in the absence of BNNP (percent of parent remaining) [6] [%]	stability in the presence of BNNP (percent of parent remaining) [6] [%]	stability porcine blood plasma (percent of parent remaining) [1] [%]	IC50 [7] [nM]	stability porcine liver S9 fractions (percent of parent remaining) [6] [%]	number of carbamate molecules bound to albumin in the most intense MS signal [8]	inhibition at 10 µM [9] [%]	decrease in FAAH inhibitory activity compared with compound 14 ([4]; ratio of FAAH IC50 values)
O=C(NCCCCCn1ccc2ccc(F)cc21)Oc1ccccc1 [Compound 14, Phenyl N-[5-(6-Fluoroindol-1-yl)pentyl]carbamate]	80 ± 6	93 ± 6^n = 6%	66 ± 8	29	>95	76 ± 2	87 ± 9	–	–	–	–	–	–
Cc1cncc(OC(=O)NCCCCCn2ccc3ccc(F)cc32)c1 [Compound 47]	–	37% and 37 ± 4%	–	2	72 ± 4	–	–	<5	150	57 ± 5	three	–	–
O=C(O)Cc1ccc(OC(=O)NCCCCCn2ccc3ccc(F)cc32)cc1 [Compound 39, 2-[4-({[5-(6-Fluoroindol-1-yl)pentyl]carbamoyl}oxy)phenyl]acetic Acid]	–	>95%	–	14	>95	–	–	88 ± 4	–	85 ± 3	–	38	–
O=C(O)Cc1ccccc1OC(=O)NCCCCCn1ccc2ccc(F)cc21 [Compound 43]	–	89 ± 3%	–	4200	>95	–	–	89 ± 1	–	82 ± 5	–	34	more than 100 fold
Cc1ccncc1OC(=O)NCCCCCn1ccc2ccc(F)cc21 [Compound 46, 4-Methylpyridin-3-yl N-[5-(6-fluoroindol-1-yl)pentyl]carbamate]	–	68% and 68 ± 6%	–	3	74 ± 4	56 ± 8	76 ± 5	8 ± 2	150	56 ± 8	dual	–	–
NC(=O)c1cccc(-c2cccc(OC(=O)NC3CCCCC3)c2)c1 [URB597 (1), reference compound]	–	95 ± 7%	–	–	>95	–	–	–	–	80 ± 4	–	35	–
